Experimental data: US20230203060A1 (GENFLEET THERAPEUTICS (SHANGHAI) INC., priority 2020, published 2023)
Like-named read-outs stand apart in the source and are kept apart here.

Assays:
[1] = tested on: KRAS G12C mutant NCI-H358 cells; test: Cell proliferation inhibition experiment, 3D spheroid, CellTiter-Glo, NCI-H358; type: cell-based, human; details: NCI-H358 (KRAS G12C mutant) 3D spheroid, 5 days with compound, CellTiter-Glo, read-out: H358 IC50
In short: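 First, H358 (800/well) or A549 (400/well) cells are plated in 2% FBS medium and left overnight to form spheroids. Next, compound is added as a 3.16-fold gradient at 0.1% DMSO for 5 days. Finally, CellTiter-Glo signal is read and IC50 derived by four-parameter fitting.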

[2] = target: T1, KRAS G12C (Homo sapiens, UniProt P01116, G12C); test: KRAS G12C NEA-HTRF experiment (SOS1-catalyzed displacement of GDP by GTP); type: biochemical
T1 construct: purchased Reactionbiology
Description: Raw materials and instruments: KRAS G12C (his-tag) purchased from Reactionbiology; batch number 3496; SOS1 purchased from Reactionbiology; batch number: 3501; GTP purchased from Sigma; article number: G8877; batch number: SLBV1450; Tris-HC1 purchased from Sigma; EDTA purchased from absin; article number: abs42017668; batch number: JE20; NaCl purchased from Sigma; article number: 55886; batch number: SLBW4193; MgCl2 purchased from Shyuanye; article number: R21455; batch number: L07S9G69806; HEPES purchased from Life Technologies; article number: 15630-080; batch number: 2037042; DTT purchased from Thermo Fisher; article number: R0862; batch number: 00608918; Triton X-100 purchased from Sigma; article number: T8787-100 ML; batch number: SLBW7103; DY647-labeled GDP purchased from Jena Bioscience; article number: NU-840-647P1; batch number: BM019-045; Anti-6H1S-Tb purchased from Cisbio; article number: 61H12TLA; batch number: 13A; Bradford Assay Kit purchased from Thermo Fisher; article number: 23246; batch number: UG287474; white opaque 96-well plate purchased from Cisbio; article number: 66PL96025; batch number: N°06; NAP-5 column purchased from GE Healthcare; article number: 17085301; batch number: 16995164; mircoplate reader purchased from PerkinElmer; model: Envision MLD2105-0020; equipment number 1050369. The effect of compounds on SOS1-catalyzed displacement of GDP by GTP on KRAS protein was examined using a homogeneous time-resolved fluorescence (HTRF) method. 30 μM 6×his-tagged KRAS G12C recombinant protein was incubated with 80 μM fluorescent dye DY647-labeled GDP in labeling buffer (1 mM DTT, 7.5 mM EDTA, 25 mM Tris-HCl, 45 mM NaCl) at 20° C. in the dark for 2 hours, purified using NAP-5 column, and then protein quantification was performed with Bradford Assay Kit after purification to determine the concentration of KRAS […] 3.16-fold gradient concentration stock solution of 1000× compound was prepared with DMSO, and diluted 250-fold to 4× compound stock solution with reaction buffer (40 mM HEPES, 10 mM MgCl2, 1 mM DTT, 0.002% Triton X-100). KRAS G12C-GDP/Tb working solution (40 nM KRAS […] Tb) and SOS1/GTP working solution (0.2 μM SOS1, 200 μM GTP) were prepared using the reaction buffer. A white opaque 96-well plate was taken, and 5 μL of 4× compound stock solution and 10 μL of KRAS G12C-GDP/Tb working solution were added to each well. 5 μL of reaction buffer instead of 4x compound stock solution was used in the control well. After incubation in the dark for 15 minutes at 20° C., 5μL of SOS1/GTP working solution was added thereto, and the fluorescence value (excitation wavelength: 320 nm, emission wavelength: 615 nm and 665 nm) was read after incubating at 20° C. in the dark for 2 hours. Another T0 group was set up with 10 μL reaction buffer+10 μL KRAS G12C-GDP/Tb working solution, and the fluorescence value was read directly by the microplate reader. The fluorescence signal ratio RLU=(665 nm signal/615 nm signal)×10^4; and the compound inhibition rate IR (%)=(RLUcompound-RLUcontrol)/(RLUT0-RLUcontrol)×100% were calculated. The IC50 value was calculated by fitting the gradient dilution concentration of compound and the corresponding inhibition rate with the four-parameter method. The NEA activity of the compounds prepared in the above embodiments of the present disclosure was 0.0001 μM to 1 μM; the inhibitory activity of some compounds on KRAS G12C mutant MIA PaCa-2 cells was 0.001 μM to 0.5 μM or 0.001 μM to 0.1 μM.

[3] = tested on: KRAS G12C mutant MIA PaCa-2 cells; test: Cell proliferation inhibition experiment, 3D spheroid, CellTiter-Glo, MIA PaCa-2; type: cell-based, human; details: Homo sapiens, MIA PaCa-2, 120 h, 3D cell model in 384-well spheroid plate, 5 days, CellTiter-Glo; read-out: MIA-PaCa2 IC50
In short: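 Luminescent ATP read-out (CellTiter-Glo) after 5-day compound treatment of spheroids formed overnight from 200 MIA PaCa-2 cells/well; compounds in 3.16-fold series, 0.1% DMSO final. IC50 derived by four-parameter fit of percent inhibition, normalized to DMSO control and medium blank.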

[4] = tested on: phosphorylated ERK downstream of KRAS G12C in MIA PaCa2 cells; test: Cell p-ERK detection experiment (HTRF) in MIA PaCa2; type: cell-based, human; details: Homo sapiens, MIA PaCa-2, 2 h, MIA PaCa2 cells, 2 hours with compound, Advance ERK phospho-T202/Y204 HTRF kit; read-out: p-ERK IC50
Description: Raw materials and instruments: MIA PaCa-2 purchased from ATCC; article number: CRL-1420; batch number: 63143594; DMEM purchased from Gibco; article number: 11995-065; batch number: 2186878; FBS purchased from Gibco; article number: 10099-141; batch number: 2109290CP; Horse serum purchased from Gibco; article number: 16050-122; batch number: 1818976; Trypsin-EDTA purchased from Gibco; article number: 25200-072; batch number: 2085552; PS purchased from Gibco; article number: 15140-122; batch number: 2145451; DMSO purchased from VWR AMRESCO; article number: 0231-500ML; batch number: 0457C072; 96-well cell culture plate purchased from Corning; article number: 3599; batch number: 22718601; white opaque 96-well plate purchased from Cisbio; article number: 66PL96025; batch number: N°05; Advance ERK phospho-T202/Y204 kit purchased from Cisbio; article number: 64AERPEH; batch number: 11D; microplate reader purchased from PerkinElmer; model: Envision MLD2105-0020; equipment number 1050369.
MIA PaCa2 was a KRAS G12C mutant human pancreatic cancer cell line cultured in 10% FBS+2.5% Horse serum DMEM culture medium. Cells at logarithmic growth stage were taken, digested with trypsin-EDTA, then collected and counted, and 2.5E4 cells were inoculated in a 96-well cell culture plate and cultured overnight. A 3.16-fold gradient concentration stock solution of 1000× compound was prepared with DMSO, and diluted 200-fold to 5× compound stock solution with culture medium. On the second day after cell inoculation, 5× compound stock solution was added to each cell culture well, with a final concentration of 1× and a DMSO content of 0.1%. DMSO was used as experimental control (control). After the compound was added and cultured for two hours, the residual culture medium was removed. 50 μL of cell lysate (from Advance ERK phospho-T202/Y204 kit, the same below) was added to each well, mixed well and incubated for 30 minutes, and then 16 μL of the mixed solution was transferred to a white opaque 96-well plate, and 16 μL of cell lysate was added to the blank wells. After the transfer was completed, 4 μL of p-ERK HTRF antibody (from Advance ERK phospho-T202/Y204 kit) mixture was added to each well, incubated for 4 hours, and the fluorescence value was read with the microplate reader. The inhibition rate of the compound IR (%)=(RLU control -RLU compound)/(RLU control-RLU blank)×100% was calculated. The gradient dilution concentration of the compound and the corresponding cell proliferation inhibition rate were fitted by Prism 8 four-parameter method, and the IC50 value was calculated. The compounds prepared in the above embodiments of the present disclosure have inhibitory activity of 0.0001 μM to 1 μM on the phosphorylated ERK level downstream of the cell channel of KRAS G12C protein mutant; some compounds have inhibitory activity of 0.001 μM to 1 μM or 0.001 μM to 0.5 μM on phosphorylated ERK level downstream of cell channel of KRAS G12C protein mutant.

T1 sequence (P01116 1-188 isoform P01116-2 G12C): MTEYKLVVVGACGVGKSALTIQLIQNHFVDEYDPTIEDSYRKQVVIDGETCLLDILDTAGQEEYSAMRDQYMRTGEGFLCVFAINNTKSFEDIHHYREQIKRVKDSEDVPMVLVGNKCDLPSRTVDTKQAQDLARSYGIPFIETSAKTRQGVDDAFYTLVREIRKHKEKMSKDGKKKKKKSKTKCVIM

| IC50 [1] | IC50 [2] | IC50 ([1]; Homo sapiens, NCI-H358, 120 h) | IC50 [3] | IC50 [4] | Structure (SMILES) |
| --- | --- | --- | --- | --- | --- |
| 38 nM | 275 nM | – | – | – | C=CC(=O)N1CCN2C(=O)c3c(N4CCN(C)[C@H](C)[C@@H]4C)nc(-c4c(O)cccc4F)c(Cl)c3OC[C@H]2C1 (relative stereo) [Z465, (6aR)-8-acryloyl-4-chloro-3-(2-fluoro-6-hydroxyphenyl)-1-(cis-2,3,4-trimethylpiperazin-1-yl)-12-oxo-6,6a,7,8,9,10-hexahydro-12H-pyrazino[2,1-c]pyrido[3,4-f][1,4]oxazepin-12-one] |
| – | 194 nM | 51.3 nM | – | – | C=CC(=O)N1CCN2C(=O)c3c(N4C[C@@H](O)[C@@H]4C)nc(-c4c(O)cccc4F)c(Cl)c3OC[C@H]2C1 (single isomer, unassigned) [Z102-1] |
| – | 175 nM | 21 nM | – | – | C=CC(=O)N1CCN2C(=O)c3c(N4C[C@@H](N(C)CCOC)CC4(C)C)nc(-c4ccccc4F)c(Cl)c3OC[C@H]2C1 (single isomer, unassigned) [Z406-2] |
| – | 252 nM | – | > 1000 nM | – | C=CC(=O)N1CCN2C(=O)c3c(N4C[C@H](C(=O)O)CC4(C)C)nc(-c4c(O)cccc4F)c(Cl)c3OC[C@H]2C1 (single isomer, unassigned) [Z458-2] |
| – | 764 nM | 49 nM | – | – | C=CC(=O)N1CCN2C(=O)c3c(N4CCC[C@@]4(C)C(=O)NC)nc(-c4c(F)cccc4OC)c(Cl)c3OC[C@H]2C1 (single isomer, unassigned) [Z466-1] |
| 38 nM | 383 nM | – | – | – | C=CC(=O)N1CCN2C(=O)c3c(N4CCC[C@@]4(C)C(=O)NC)nc(-c4c(F)cccc4OC)c(Cl)c3OC[C@H]2C1 (single isomer, unassigned) [Z466-2] |
| – | 593 nM | 63.3 nM | – | – | C=CC(=O)N1CCN2C(=O)c3c(N4C[C@H](N5CCN(C)CC5)CC4(C)C)nc(-c4ccccc4F)c(F)c3OC[C@H]2C1 (single isomer, unassigned) [Z474-2] |
| – | 431 nM | 74.9 nM | – | – | C=CC(=O)N1CCN2C(=O)c3c(N4CC(N5CC(OC)C5)CC4(C)C)nc(-c4ccccc4F)c(Cl)c3OC[C@H]2C1 (single isomer, unassigned) [Z479-2] |
| – | 321 nM | 155 nM | – | – | C=CC(=O)N1CCN2C(=O)c3c(N4CC(N5CC(F)C5)CC4(C)C)nc(-c4ccccc4F)c(Cl)c3OC[C@H]2C1 (single isomer, unassigned) [Z480-2] |
| – | – | 22 nM | – | 180 nM | C=CC(=O)N1CCN2C(=O)c3c(N4CCCC4(C)C)nc(-c4ccccc4F)c(Cl)c3OC[C@H]2C1 [Z147, (R)-8-acryloyl-4-chloro-1-(2,2-dimethylpyrrolidin-1-yl)-3-(2-fluorophenyl)-6,6a,7,8,9,10-hexahydro-12H-pyrazino[2,1-c]pyrido[3,4-f][1,4]oxazepin-12-one] |
| – | 169 nM | 16 nM | – | – | C=CC(=O)N1CCN2C(=O)c3c(N4C[C@@H](C)O[C@H](C)C4)nc(-c4c(O)cccc4F)c(Cl)c3OC[C@H]2C1 [Z248-2, (6aR)-8-acryloyl-4-chloro-1-((2R,6R)-2,6-dimethylmorpholino)-3-(2-fluoro-6-hydroxyphenyl)-6,6a,7,8,9,10-hexahydro-12H-pyrazino[2,1-c]pyrido[3,4-f][1,4]oxazepin-12-one] |
| – | – | 23.7 nM | – | 162 nM | C=CC(=O)N1CCN2C(=O)c3c(N4CCN5CCC[C@@H]5C4)nc(-c4c(O)cccc4F)c(Cl)c3OC[C@H]2C1 [Z317-2, (6aR)-8-acryloyl-4-chloro-3-(2-fluoro-6-hydroxyphenyl)-1-((R)-hexahydropyrrolo[1,2-a]pyrazin-2(1H)-yl)-6,6a,7,8,9,10-hexahydro-12H-pyrazino[2,1-c]pyrido[3,4-f][1,4]oxazepin-12-one] |
| – | 423 nM | 29.6 nM | – | – | C=CC(=O)N1CCN2C(=O)c3c(N4CCN(CCOC)C(C)(C)C4)nc(-c4ccccc4F)c(Cl)c3OCC2C1 (stereo not drawn) [Z478, 8-acryloyl-4-chloro-3-(2-fluorophenyl)-1-(4-(2-methoxyethyl)-3,3-dimethylpiperazin-1-yl)-6,6a,7,8,9,10-hexahydro-12H-pyrazino[2,1-c]pyrido[3,4-f][1,4]oxazepin-12-one] |
| – | > 10000 nM | – | – | – | C=CC(=O)N1CCN2Cc3c(C(=O)N(C)C(C)C)nc(-c4ccccc4F)c(Cl)c3OC[C@H]2C1 [Z656, (R)-8-acryloyl-4-chloro-3-(2-fluorophenyl)-N-isopropyl-N-methyl-6a,7,8,9,10,12-hexahydro-6H-pyrazino[2,1-c]pyrido[3,4-f][1,4]oxazepine-1-carboxamide] |
